These results are taken from ChEMBL document CHEMBL3508693 (2016).

SMILES strings stand for the structures. Where only a bound is given, the exact number is not on record here.

Data set [1] in a line: % aliskiren hemifumarate recovered as M1 in urine following single oral dose of 300 mg [14C]SPP100 studied in healthy men. The class given is ADME, organism-based. Conditions: human, in vivo.
Data set [2] in a line: % aliskiren hemifumarate recovered as M1 in urine and faeces following single oral dose of 300 mg [14C]SPP100 studied in healthy men. Type of data set: ADME, organism-based, Urine/Feces. The note with it: human, in vivo, at 300 mg.
Data set [3] in a line: % aliskiren recovered as M1 in bile following single intravenous administration of 10 mg.Kg-1 [14C] aliskiren hemifumarate in male rat. Conditions: in vivo. Type of data set: ADME, organism-based, HAN:WIST(SPF).
A short description of data set [4]: % of radioactivity recovered as M1 in urine following intravenous administration of [14C] aliskiren hemifumarate at 10 mg.Kg-1 level in rat. Type of data set: ADME, organism-based, Albino HAN:WIST. Conditions: in vivo.
The nature of data set [5]: % aliskiren recovered as M1 in urine following single intravenous administration of 10 mg.Kg-1 [14C] aliskiren hemifumarate in male rat. The note with it: in vivo. Type of data set: ADME, organism-based, HAN:WIST(SPF).
The nature of data set [6]: % of radioactivity recovered as M1 in faeces following intravenous administration of [14C] aliskiren hemifumarate at 10 mg.Kg-1 level in rat. The class given is ADME, organism-based, Albino HAN:WIST, Feces. The note with it: in vivo.
The nature of data set [7]: % of radioactivity recovered as M1 in plasma following intravenous administration of [14C] aliskiren hemifumarate at 10 mg.Kg-1 level in rat. The class given is ADME, organism-based, Albino HAN:WIST. The note with it: in vivo.
A short description of data set [8]: % of radioactivity recovered as M1 in faeces following oral administration of [14C] aliskiren hemifumarate at 100 mg.Kg-1 level in rat. The class given is ADME, organism-based, Albino HAN:WIST, Feces. The note with it: in vivo.
Data set [9] is described as follows: % of radioactivity recovered as M1 in urine following oral administration of [14C] aliskiren hemifumarate at 100 mg.Kg-1 level in rat. The class given is ADME, organism-based, Albino HAN:WIST. Conditions: in vivo.
Data set [10] is described as follows: % of radioactivity recovered as M1 in plasma following oral administration of [14C] aliskiren hemifumarate at 100 mg.Kg-1 level in rat. The class given is ADME, organism-based, Albino HAN:WIST. Conditions: in vivo.
A short description of data set [11]: % aliskiren recovered as M1 in hydrolysed following single intravenous administration of 10 mg.Kg-1 [14C] aliskiren hemifumarate in male rat. The note with it: in vivo. The class given is ADME, organism-based, HAN:WIST(SPF), Bile.
Data set [12] is described as follows: % aliskiren recovered as M1 of receiver rat following duodenal infusion of radioactivity through bile from donor rat treated with single intravenous administration of 10 mg.Kg-1 [14C] aliskiren hemifumarate. The class given is ADME, organism-based, HAN:WIST(SPF). Conditions: in vivo.
A short description of data set [13]: % aliskiren hemifumarate recovered as M1 in faeces following single oral dose of 300 mg [14C]SPP100 studied in healthy men. Type of data set: ADME, organism-based, Feces. The note with it: human, in vivo, at 300 mg.

Consider `COCCCOc1cc(C[C@@H](C[C@H](N)[C@@H](O)C[C@H](C(=O)NCC(C)(C)C(N)=O)C(C)C)C(C)C)ccc1O`, for which the Compound recovery result in [1] is listed as “OUTCOME = Not detected”; in data set [2] it was 0.1%; in data set [3] it was 1.3%; in data set [4], “<= 2%”; in data set [5] it was 0.8%; in [6], more than 2%. Moreover, the Compound recovery result is recorded as “OUTCOME = Not detected or not investigated” in data set [7]; “<= 2%” in data set [8]; “<= 2%” in data set [9]; “OUTCOME = Not detected or not investigated” in [10]; 2.8% in [11]; “OUTCOME = Not detected” in data set [12]. In [13], this compound registered a Compound recovery of 0.1%.
